In assay [1] the target is T1, myosin ATPase, Porcine Ventricle myofibrils (Sus scrofa, UniProt P79293).
T1 construct: Myofibrils from porcine cardiac muscle was isolated from the left ventricle of Yucatan minipigs; tissue Exemplar Genetics; host or cells: left ventricle of Yucatan minipigs, myofibrils
The experiment in a line: Myofibril ATPase assay, porcine ventricle myofibrils. Format: biochemical, porcine (Yucatan minipigs). The note with it: concentration required to reduce myosin ATP-ase activity by 25%; Porcine Ventricle Prep pCa 25 GEOM_MEAN. The method, boiled down:
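Myofibrils from Yucatan minipig left ventricle; ADP production coupled via PK-LDH to NADH loss, read kinetically at 340 nm every 1.5–2 min for 75 min in PIPES/MgCl2 pH 7.0 buffer. Slopes normalized to vehicle and fit to 4-parameter logistic; values are concentrations giving 75% (inhibition) or 125% (activation) of vehicle activity.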

Assay [2] concerns myosin ATPase, Porcine Atria myofibrils. The experiment in a line: Myofibril ATPase assay, porcine atria myofibrils. It counts as biochemical. As to conditions: concentration required to reduce myosin ATP-ase activity by 25%; Porcine Atria Prep pCa 25 GEOM_MEAN.
Assay [3] relates to myosin ATPase, Rabbit Psoas myofibrils. The experiment in a line: Myofibril ATPase assay, rabbit psoas (skeletal) myofibrils. Format: biochemical. The note with it: concentration required to reduce myosin ATP-ase activity by 25%; Rabbit Psoas Prep pCa 25 GEOM_MEAN.

T1 sequence (P79293 whole entry): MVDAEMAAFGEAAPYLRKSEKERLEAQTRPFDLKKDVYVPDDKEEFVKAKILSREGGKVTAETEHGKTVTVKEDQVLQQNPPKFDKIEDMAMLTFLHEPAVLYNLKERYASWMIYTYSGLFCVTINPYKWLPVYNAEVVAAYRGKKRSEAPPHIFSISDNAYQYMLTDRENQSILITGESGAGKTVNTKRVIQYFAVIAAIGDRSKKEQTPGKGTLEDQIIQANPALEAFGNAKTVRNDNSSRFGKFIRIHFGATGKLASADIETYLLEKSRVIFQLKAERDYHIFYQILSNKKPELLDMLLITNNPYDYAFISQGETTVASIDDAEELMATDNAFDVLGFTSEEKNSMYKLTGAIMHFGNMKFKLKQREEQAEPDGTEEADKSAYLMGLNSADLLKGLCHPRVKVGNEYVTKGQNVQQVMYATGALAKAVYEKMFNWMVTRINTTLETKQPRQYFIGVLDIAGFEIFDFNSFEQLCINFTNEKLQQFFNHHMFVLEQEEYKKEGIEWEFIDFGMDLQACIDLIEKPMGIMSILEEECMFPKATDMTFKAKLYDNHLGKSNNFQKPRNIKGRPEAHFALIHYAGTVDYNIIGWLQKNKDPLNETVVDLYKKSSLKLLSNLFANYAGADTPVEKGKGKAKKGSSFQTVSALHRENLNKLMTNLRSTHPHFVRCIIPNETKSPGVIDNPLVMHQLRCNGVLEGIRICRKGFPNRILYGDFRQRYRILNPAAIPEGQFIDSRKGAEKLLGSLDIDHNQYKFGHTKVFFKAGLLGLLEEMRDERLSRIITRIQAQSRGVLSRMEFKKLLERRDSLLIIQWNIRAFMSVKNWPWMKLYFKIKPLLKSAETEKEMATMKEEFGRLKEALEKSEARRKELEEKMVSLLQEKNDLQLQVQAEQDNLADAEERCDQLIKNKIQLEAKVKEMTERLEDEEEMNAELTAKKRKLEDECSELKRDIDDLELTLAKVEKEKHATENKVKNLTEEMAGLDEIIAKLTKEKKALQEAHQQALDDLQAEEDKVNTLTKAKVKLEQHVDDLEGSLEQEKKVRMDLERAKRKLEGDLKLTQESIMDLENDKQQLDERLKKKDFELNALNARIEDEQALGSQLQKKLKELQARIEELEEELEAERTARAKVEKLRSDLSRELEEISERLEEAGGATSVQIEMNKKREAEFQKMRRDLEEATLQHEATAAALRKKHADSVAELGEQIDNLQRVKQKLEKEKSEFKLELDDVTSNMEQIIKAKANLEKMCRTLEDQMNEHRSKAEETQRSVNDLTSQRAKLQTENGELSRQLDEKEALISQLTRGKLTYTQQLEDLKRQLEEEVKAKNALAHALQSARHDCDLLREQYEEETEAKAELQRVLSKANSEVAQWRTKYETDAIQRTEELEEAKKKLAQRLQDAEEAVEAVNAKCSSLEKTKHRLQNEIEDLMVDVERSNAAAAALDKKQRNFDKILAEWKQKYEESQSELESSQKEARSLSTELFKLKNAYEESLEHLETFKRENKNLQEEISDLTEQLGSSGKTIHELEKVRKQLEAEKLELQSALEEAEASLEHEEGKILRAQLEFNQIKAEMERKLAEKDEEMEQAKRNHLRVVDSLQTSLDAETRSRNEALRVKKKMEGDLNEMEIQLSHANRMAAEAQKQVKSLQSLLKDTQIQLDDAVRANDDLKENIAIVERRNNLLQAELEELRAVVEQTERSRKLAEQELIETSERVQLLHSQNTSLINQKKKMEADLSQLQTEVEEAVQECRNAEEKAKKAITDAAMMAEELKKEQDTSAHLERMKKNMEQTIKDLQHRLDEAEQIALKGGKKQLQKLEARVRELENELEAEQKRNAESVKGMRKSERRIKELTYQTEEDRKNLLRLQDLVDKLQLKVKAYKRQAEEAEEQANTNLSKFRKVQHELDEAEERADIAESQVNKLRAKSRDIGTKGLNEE

Regarding `C[C@H](NC(=O)Cn1c(=O)[nH]c2ncncc2c1=O)c1ccc(F)cc1F` [Compound 95, (S)-N-(1-(2,4-difluorophenyl)ethyl)-2-(2,4-dioxo-1,4-dihydropyrimido[4,5-d]pyrimidin-3(2H)-yl)acetamide], in assay [1], the “Porcine Ventricle EC25 (Y75 value)” value came to 100 µM. Moreover, in assay [2], the “Porcine Atria EC25 (Y75 value)” value is 100 µM. In addition, the “Rabbit Psoas EC25 (Y75 value)” value in assay [3] was found to be 100 µM.

For the compound `C[C@H](NC(=O)Cn1c(=O)[nH]c2cncnc2c1=O)c1ccc(F)cc1F` [Compound 96, (S)-N-(1-(2,4-difluorophenyl)ethyl)-2-(2,4-dioxo-1,4-dihydropyrimido[5,4-d]pyrimidin-3(2H)-yl)acetamide], the “Porcine Ventricle EC25 (Y75 value)” value in assay [1] worked out at 100 µM. In assay [2], the “Porcine Atria EC25 (Y75 value)” value is 100 µM. Besides, the “Rabbit Psoas EC25 (Y75 value)” value in assay [3] is 100 µM.

As to `CC(NC(=O)Cn1c(=O)[nH]c2ccccc2c1=O)c1ccc(F)cn1` (stereo not drawn) [Compound 106, 2-(2,4-dioxo-1,4-dihydroquinazolin-3(2H)-yl)-N-(1-(5-fluoropyridin-2-yl)ethyl)acetamide], the “Porcine Ventricle EC25 (Y75 value)” value in assay [1] stood at 100 µM. In addition, in assay [2], the “Porcine Atria EC25 (Y75 value)” value was determined as 100 µM. Moreover, the “Rabbit Psoas EC25 (Y75 value)” value in assay [3] amounted to 72.241 µM.

With `COc1ccc2c(=O)n(CC(=O)N[C@@H](C)c3ccc(F)cc3F)c(=O)[nH]c2c1` [Compound 142, (S)-N-(1-(2,4-difluorophenyl)ethyl)-2-(7-methoxy-2,4-dioxo-1,4-dihydroquinazolin-3(2H)-yl)acetamide], the “Porcine Ventricle EC25 (Y75 value)” value in assay [1] was determined as 100 µM. The “Porcine Atria EC25 (Y75 value)” value in assay [2] is 100 µM. For the same compound, the “Rabbit Psoas EC25 (Y75 value)” value in assay [3] stood at 100 µM.

On to `C[C@H](NC(=O)Cn1c(=O)[nH]c2cc(F)ccc2c1=O)c1ccc(F)cc1F` [Compound 143, (S)-N-(1-(2,4-difluorophenyl)ethyl)-2-(7-fluoro-2,4-dioxo-1,4-dihydroquinazolin-3(2H)-yl)acetamide], for which, in assay [1], the “Porcine Ventricle EC25 (Y75 value)” value was 100 µM. For the same compound, the “Porcine Atria EC25 (Y75 value)” value in assay [2] came to 2.081 µM. Also, the “Rabbit Psoas EC25 (Y75 value)” value in assay [3] is 9.2 µM.

For the compound `C[C@H](NC(=O)Cn1c(=O)[nH]c2cccc(F)c2c1=O)c1ccc(F)cc1F` [Compound 154, (S)-N-(1-(2,4-difluorophenyl)ethyl)-2-(5-fluoro-2,4-dioxo-1,4-dihydroquinazolin-3(2H)-yl)acetamide], the “Porcine Ventricle EC25 (Y75 value)” value in assay [1] was 1.15 µM. In addition, the “Porcine Atria EC25 (Y75 value)” value in assay [2] is 0.1312 µM. Besides, the “Rabbit Psoas EC25 (Y75 value)” value in assay [3] was 0.11 µM.

`C[C@H](NC(=O)Cn1c(=O)[nH]c2ccc(F)cc2c1=O)c1ccc(F)cc1F` [Compound 155, (S)-N-(1-(2,4-difluorophenyl)ethyl)-2-(6-fluoro-2,4-dioxo-1,4-dihydroquinazolin-3(2H)-yl)acetamide]: the “Porcine Ventricle EC25 (Y75 value)” value in assay [1] is 0.1805 µM. For the same compound, the “Porcine Atria EC25 (Y75 value)” value in assay [2] worked out at 0.0623 µM. The “Rabbit Psoas EC25 (Y75 value)” value in assay [3] stood at 0.073 µM.

Turning to `C[C@@H](NC(=O)Cn1c(=O)[nH]c2ccccc2c1=O)c1ccc(F)cc1F` [Compound 166, (R)-N-(1-(2,4-difluorophenyl)ethyl)-2-(2,4-dioxo-1,4-dihydroquinazolin-3(2H)-yl)acetamide], in assay [1], the “Porcine Ventricle EC25 (Y75 value)” value was 100 µM. In addition, the “Porcine Atria EC25 (Y75 value)” value in assay [2] is 100 µM. In assay [3], the “Rabbit Psoas EC25 (Y75 value)” value is 100 µM.

As for `CC(NC(=O)Cn1c(=O)[nH]c2ccccc2c1=O)c1ccc(F)cc1F` (stereo not drawn) [Compound 169, N-(1-(2,4-difluorophenyl)ethyl)-2-(2,4-dioxo-1,4-dihydroquinazolin-3(2H)-yl)acetamide], in assay [1], the “Porcine Ventricle EC25 (Y75 value)” value came to 31.6 µM. Moreover, the “Porcine Atria EC25 (Y75 value)” value in assay [2] was found to be 2.407 µM. Also, the “Rabbit Psoas EC25 (Y75 value)” value in assay [3] turned out to be 0.494 µM.

For `CC(NC(=O)Cn1c(=O)[nH]c2ccccc2c1=O)c1ccncc1` (stereo not drawn) [Compound 213, 2-(2,4-dioxo-1,4-dihydroquinazolin-3(2H)-yl)-N-(1-(pyridin-4-yl)ethyl)acetamide], the “Porcine Ventricle EC25 (Y75 value)” value in assay [1] stood at 100 µM. In addition, in assay [2], the “Porcine Atria EC25 (Y75 value)” value turned out to be 100 µM. The “Rabbit Psoas EC25 (Y75 value)” value in assay [3] came out at 100 µM.

Turning to `CC(NC(=O)Cn1c(=O)[nH]c2ccccc2c1=O)c1cncnc1` (stereo not drawn) [Compound 214, 2-(2,4-dioxo-1,4-dihydroquinazolin-3(2H)-yl)-N-(1-(pyrimidin-5-yl)ethyl)acetamide], the “Porcine Ventricle EC25 (Y75 value)” value in assay [1] was determined as 100 µM. Also, the “Porcine Atria EC25 (Y75 value)” value in assay [2] amounted to 100 µM. In assay [3], the “Rabbit Psoas EC25 (Y75 value)” value was found to be 100 µM.

For the compound `CC(NC(=O)Cn1c(=O)[nH]c2ccccc2c1=O)c1cnccn1` (stereo not drawn) [Compound 215, 2-(2,4-dioxo-1,4-dihydroquinazolin-3(2H)-yl)-N-(1-(pyrazin-2-yl)ethyl)acetamide], the “Porcine Ventricle EC25 (Y75 value)” value in assay [1] is 45.3 µM. In assay [2], the “Porcine Atria EC25 (Y75 value)” value amounted to 23.9 µM. Further, the “Rabbit Psoas EC25 (Y75 value)” value in assay [3] came to 100 µM.

Take `C[C@H](NC(=O)Cn1c(=O)[nH]c2cnccc2c1=O)c1ccc(F)cc1F` [Compound 301, (S)-N-(1-(2,4-difluorophenyl)ethyl)-2-(2,4-dioxo-1,4-dihydropyrido[3,4-d]pyrimidin-3(2H)-yl)acetamide]: the “Porcine Ventricle EC25 (Y75 value)” value in assay [1] was found to be 100 µM. Also, in assay [2], the “Porcine Atria EC25 (Y75 value)” value amounted to 79 µM. Moreover, the “Rabbit Psoas EC25 (Y75 value)” value in assay [3] came to 5.422 µM.

As to `C[C@H](NC(=O)Cn1c(=O)[nH]c2ncccc2c1=O)c1ccc(F)cc1F` [Compound 302, (S)-N-(1-(2,4-difluorophenyl)ethyl)-2-(2,4-dioxo-1,4-dihydropyrido[2,3-d]pyrimidin-3(2H)-yl)acetamide], the “Porcine Ventricle EC25 (Y75 value)” value in assay [1] was 100 µM. For the same compound, in assay [2], the “Porcine Atria EC25 (Y75 value)” value stood at 100 µM. Besides, in assay [3], the “Rabbit Psoas EC25 (Y75 value)” value was found to be 100 µM.

`C[C@H](NC(=O)Cn1c(=O)[nH]c2cccnc2c1=O)c1ccc(F)cc1F` [Compound 303, (S)-N-(1-(2,4-difluorophenyl)ethyl)-2-(2,4-dioxo-1,4-dihydropyrido[3,2-d]pyrimidin-3(2H)-yl)acetamide]: in assay [1], the “Porcine Ventricle EC25 (Y75 value)” value turned out to be 100 µM. The “Porcine Atria EC25 (Y75 value)” value in assay [2] amounted to 100 µM. In addition, the “Rabbit Psoas EC25 (Y75 value)” value in assay [3] came out at 23 µM.

For `CC(C)[C@H](N)C(=O)OCn1c(=O)n(CC(=O)N[C@@H](C)c2ccc(F)cc2F)c(=O)c2cc(F)ccc21` [Compound 401, (3-(2-(((S)-1-(2,4-difluorophenyl)ethyl)amino)-2-oxoethyl)-6-fluoro-2,4-dioxo-3,4-dihydroquinazolin-1(2H)-yl)methyl L-valinate], the “Porcine Ventricle EC25 (Y75 value)” value in assay [1] turned out to be 100 µM. Besides, the “Porcine Atria EC25 (Y75 value)” value in assay [2] came out at 46.5 µM. In assay [3], the “Rabbit Psoas EC25 (Y75 value)” value came out at 6.978 µM.

As for `COCn1c(=O)n(CC(=O)N[C@@H](C)c2ccc(F)cc2F)c(=O)c2cc(F)ccc21` [Compound 402, (S)-N-(1-(2,4-difluorophenyl)ethyl)-2-(6-fluoro-1-(methoxymethyl)-2,4-dioxo-1,4-dihydroquinazolin-3(2H)-yl)acetamide], in assay [1], the “Porcine Ventricle EC25 (Y75 value)” value was determined as 100 µM. In addition, the “Porcine Atria EC25 (Y75 value)” value in assay [2] is 100 µM. The “Rabbit Psoas EC25 (Y75 value)” value in assay [3] stood at 100 µM.
